Numbered stars: 1 amine (or outer) side, 2 acyl side, 3 side chain; on linkers, the order of the positions; unused ones are H or OH. Square brackets hold non-standard residues; d marks the D form. Side chains are listed from the residue outwards. Peptide text beside a SMILES is read from it. * marks the point of attachment. γGlu = O=C(O)[C@H](CCC(=O)[*:2])N[*:1]; Stearoyl = CCCCCCCCCCCCCCCCCC(=O)*; Aib = CC(C)(N)C(=O)O
Assay: Thioflavin T (ThT) assay for physical stability (fibrillation)
Type: physicochemical
Conditions: 3 mg/ml, 100 mM acetate pH 4.5 with m-cresol, 37° C. shaking
Source text: Low physical stability of a peptide solution may lead to amyloid fibril formation, which is observed as well-ordered, thread-like macromolecular structures in the sample, which eventually may lead to gel formation. Thioflavin T (ThT) is widely used to visualize and quantify the presence of misfolded protein aggregates. [Biancalana et al. (2010) Biochimica et Biophysica Acta. 1804 (7): 1405-1412]. […] Enzymol. 309, 274-284]. The time course for fibril formation often follows the characteristic shape of a sigmoidal curve and can be separated into three regions: a lag phase, a fast growth phase, and a plateau phase.
The typical fibril formation process starts with the lag phase in which the amount of partially folded peptide turned into fibrils is not significant enough to be detected. The lag-time corresponds to the time the critical mass of the nucleus is built. Afterwards, a drastic elongation phase follows and fibril concentration increases rapidly.
Investigations were carried out to determine fibrillation tendencies under stress conditions by shaking at 37° C. within Fluoroskan Ascent FL.
For the tests in Fluoroskan Ascent FL, 200 μL sample were placed into a 96 well mictrotiter plate PS, flat bottom, Greiner Fluotrac No. 655076. Plates were sealed with Scotch Tape (Quiagen). Samples were stressed by continuous cycles of 10 s shaking at 960 rpm and 50 s rest period at 37° C. The kinetic was monitored by measuring fluorescence intensity every 20 minutes.
Peptides were diluted in a buffer system to a final concentration of 3 mg/ml. 20 μL of a 10.1 mM ThT solution in H2O were added to 2 mL of peptide solution to receive a final concentration of 100 μM ThT. For each sample eight replicates were tested.
Tht buffer system A) 100 mM Acetate pH 4.5 including m-cresol (100 mM Natriumacetat trihydrat, pH adjustment using 2N CH3COOH, 2.7 mg/mL m-cresol) Tht buffer system B) 100 mM citrate buffer pH 6.0
Lag time in hours in Thioflavin T (ThT) assay of peptide samples was determined in ThT buffer system A as described in Methods.

Structure (SMILES) | Lag time before increase [h]
CCCCCCCCCCCCCCCCCC(=O)N[C@@H](CCC(=O)NCCCC[C@H](NC(=O)[C@H](CC(C)C)NC(=O)[C@H](CCCCN)NC(=O)[C@H](CO)NC(=O)[C@H](CC(C)C)NC(=O)[C@H](CC(=O)O)NC(=O)[C@H](CO)NC(=O)[C@@H](NC(=O)[C@H](Cc1ccccc1)NC(=O)[C@@H](NC(=O)CNC(=O)[C@H](Cc1c[nH]cn1)NC(=O)C(C)(C)NC(=O)[C@@H](N)Cc1c[nH]cn1)[C@@H](C)O)[C@@H](C)O)C(=O)N[C@@H](CCC(=O)O)C(=O)N[C@@H](CCC(=O)O)C(=O)N[C@@H](CCC(N)=O)C(=O)N[C@@H](CCCNC(=N)N)C(=O)N[C@@H](CCC(N)=O)C(=O)NC(C)(C)C(=O)N[C@@H](CCC(=O)O)C(=O)N[C@@H](Cc1ccccc1)C(=O)N[C@H](C(=O)N[C@@H](CCC(=O)O)C(=O)N[C@@H](Cc1c[nH]c2ccccc12)C(=O)N[C@@H](CC(C)C)C(=O)N[C@@H](CCCCN)C(=O)N[C@@H](C)C(=O)N[C@H](C)C(=O)NCC(=O)N1CCC[C@H]1C(=O)N1CCC[C@H]1C(=O)N[C@@H](CO)C(=O)NC(C)(C)C(=O)N[C@@H](CCCCN)C(=O)N1CCC[C@H]1C(=O)N1CCC[C@H]1C(=O)N1CCC[C@H]1C(=O)N[C@@H](CCCCN)C(N)=O)[C@@H](C)CC)C(=O)O [SEQ ID NO: 17, H-Aib-H-G-T-F-T-S-D-L-S-K-L-K[gGlu-Stea]-E-E-Q-R-Q-Aib-E-F-I-E-W-L-K-A-dAla-G-P-P-S-Aib-K-P-P-P-K-NH2] (H-H[Aib]HGTFTSDLSKLK([γGlu-Stearoyl])EEQRQ[Aib]EFIEWLKA[dA]GPPS[Aib]KPPPK-NH2) | >45
CCCCCCCCCCCCCCCC(=O)N[C@@H](CCC(=O)NCCCC[C@H](NC(=O)[C@H](CC(C)C)NC(=O)[C@H](CCCCN)NC(=O)[C@H](CO)NC(=O)[C@H](CC(C)C)NC(=O)[C@H](CC(=O)O)NC(=O)[C@H](CO)NC(=O)[C@@H](NC(=O)[C@H](Cc1ccccc1)NC(=O)[C@@H](NC(=O)CNC(=O)[C@H](Cc1c[nH]cn1)NC(=O)C(C)(C)NC(=O)[C@@H](N)Cc1c[nH]cn1)[C@@H](C)O)[C@@H](C)O)C(=O)N[C@@H](CCC(=O)O)C(=O)N[C@@H](CCC(=O)O)C(=O)N[C@@H](CCC(N)=O)C(=O)N[C@@H](CCCNC(=N)N)C(=O)N[C@@H](CCC(N)=O)C(=O)NC(C)(C)C(=O)N[C@@H](CCC(=O)O)C(=O)N[C@@H](Cc1ccccc1)C(=O)N[C@H](C(=O)N[C@@H](CCC(=O)O)C(=O)N[C@@H](Cc1c[nH]c2ccccc12)C(=O)N[C@@H](CC(C)C)C(=O)N[C@@H](CCCCN)C(=O)N[C@@H](C)C(=O)NCC(=O)NCC(=O)N1CCC[C@H]1C(=O)N1CCC[C@H]1C(=O)N[C@@H](CO)C(=O)NC(C)(C)C(=O)N[C@@H](CCCCN)C(=O)N1CCC[C@H]1C(=O)N1CCC[C@H]1C(=O)N1CCC[C@H]1C(=O)N[C@@H](CCCCN)C(N)=O)[C@@H](C)CC)C(=O)O [SEQ ID NO: 18, H-Aib-H-G-T-F-T-S-D-L-S-K-L-K[gGlu-Palm]-E-E-Q-R-Q-Aib-E-F-I-E-W-L-K-A-G-G-P-P-S-Aib-K-P-P-P-K-NH2] | >45
